# Read-outs that look alike come from different tables or passages of the source.
# Assays:
# [1] = system: NHLF (Lung) normal cells; assay: alamarBlue growth inhibition, NHLF; type: cell-based, human; details: 120 hours
# Experimental: (§1) Growth Inhibition Studies. Cells growing exponentially were transferred to 384-well flat bottom tissue culture plates. All cell types were plated at a density of 500 cells per well in 25 μL of complete medium (RPMI 1640+10% fetal bovine serum+antibiotics/antimycotics). After 24 hours (day 0), 25 μL of complete medium containing the experimental compounds over the dose range of 10^ñ3 to 10^ñ10 M were added in triplicate. […] 5 μL of the redox indicator, alamarBlue, was added to each well (10% v/v). After 4 hours incubation at 37° C., fluorescence was monitored at 535 nm excitation and 595 nm emission.
# (§2) Concentration vs. relative fluorescence units (RFU) were plotted, and sigmoid curves were fit using the Hill equation.
# [2] = system: RKO colon cancer cells; assay: alamarBlue cytotoxicity, RKO parental; type: cell-based, human; details: Drug Selection None, read-out: NB1011-IC50
# Experimental: as §1, §2
# (§3) Cells were grown and characterized as described above. TS expression level is relative to CCD18co, a normal colon epithelial cell line. Tritium release is background substracted as described in Methods. ND=Not detectable above background.
# [3] = system: MDAMB361 (Breast) tumor cells; assay: alamarBlue growth inhibition, MDAMB361; type: cell-based, human; details: 120 hours
# Experimental: as §1, §2
# [4] = system: SKHEP1 (Liver) tumor cells; assay: alamarBlue growth inhibition, SKHEP1; type: cell-based, human; details: 120 hours
# Experimental: as §1, §2
# [5] = system: CCD18co normal colon epithelial cells; assay: alamarBlue growth inhibition, CCD18co; type: cell-based, human
# Experimental: as §1, §2
# [6] = system: N1S1 cells, 5FU selection; assay: alamarBlue cytotoxicity, N1S1 5FU-selected; type: cell-based; details: N1S1, Drug Selection 5FU; read-out: NB1011-IC50
# Experimental: as §1, §2, §3
# [7] = system: HT1080 (Colon) tumor cells; assay: alamarBlue growth inhibition, HT1080; type: cell-based, human; details: 120 hours
# Experimental: as §1, §2
# [8] = system: H630 colon cancer cells, TDX selection; assay: alamarBlue cytotoxicity, H630 TDX-selected; type: cell-based, human; details: Drug Selection TDX, read-out: NB1011-IC50
# Experimental: as §1, §2, §3
# [9] = system: MCF7 TDX/1011 cells (MCF7 TDX selected for resistance to NB1011); assay: alamarBlue cytotoxicity, MCF7 TDX/1011; type: cell-based, human
# Experimental: as §1, §2
# Reversal of Resistance. The origin and characteristics of the human breast cancer MCF7 TDX cell line have been previously described (Drake, et al. (1996)). Briefly, MCF-7 breast cancer cells were selected in vitro for resistance to Tomudex by continuous exposure to stepwise increases in TDX concentrations up to 2.0 μM. […] After a dramatic initial cell killing effect, resistant colonies emerged, and vigorously growing monolayers were formed. TS protein level and IC50 for 5-FU, TDX, and NB1011 were determined for the resultant MCF7 TDX/1011 cell line as described in above by western blot and the alamarBlue cytotoxicity assay, respectively.
# [10] = system: normal and tumor cell types; assay: cells; details: for IC50: read-out: IC50 (μM), Average
# Experimental: Growth Inhibition Studies. Cells growing exponentially were transferred to 384-well flat bottom tissue culture plates. All cell types were plated at a density of 500 cells per well in 25 μL of complete medium (RPMI 1640+10% fetal bovine serum+antibiotics/antimycotics). After 24 hours (day 0), 25 μL of complete medium containing the experimental compounds over the dose range of 10^ñ3 to 10^ñ10 M were added in triplicate. Drug exposure time was 120 hours (day 5), after which growth inhibition was assayed. 5 μL of the redox indicator, alamarBlue, was added to each well (10% v/v). After 4 hours incubation at 37° C., fluorescence was monitored at 535 nm excitation and 595 nm emission.
# as §2
# Assays were carried out as described in Methods, above. Therapeutic index is calculated as the ratio of the average IC50 for normal cells to the average IC50 for tumor cells. All assays were done at least three times.
# [11] = system: PANC1 (Pancreas) tumor cells; assay: alamarBlue growth inhibition, PANC1; type: cell-based, human; details: 120 hours
# Experimental: as §1, §2
# [12] = system: DET551 (Skin) normal cells; assay: alamarBlue growth inhibition, DET551; type: cell-based, human; details: 120 hours
# Experimental: as §1, §2
# [13] = system: C/HT1080 cells; assay: alamarBlue cytotoxicity, control-transfected HT1080; type: cell-based, human; details: C/HT1080, TS Level 100%
# Experimental: Cell lines and transfection. HT1080 cells were grown in PRM11640 medium supplemented with 10% fetal calf serum, and transfected with GFP-TS expression vector. 48 hours after, transfection cells were tripsinized and replated in culture medium containing 750 μg/ml G418. After selection with G418 for two weeks, surviving cells were sorted based upon fluorescence expression. One clone with higher fluorescence expression (named as TSH/HT1080) and one clone with lower fluorescence expression (named as TSL/HT1080) were selected and expanded into cells lines. The stable HT1080 cells transfected with pEGFP-C3 were used as control.
# Construction of GFP-TS expression vector. […] The cDNA was cloned into HindIII and KpnI sites of mammalian expression vector pEGFP-C3 (Clontech Laboratories. Inc., Palo Alto, Calif.), in-frame with GFP sequence. The cDNA insert was confirmed by DNA sequencing.
# Growth Inhibition Studies. Cells growing exponentially were transferred to 384-well flat bottom tissue culture plates. All cell types were plated at a density of 500 cells per well in 25 μL of complete medium (RPMI 1640+10% fetal bovine serum+antibiotics/antimycotics). […] After 4 hours incubation at 37° C., fluorescence was monitored at 535 nm excitation and 595 nm emission.
# as §2
# [14] = system: NCI H520 (Lung) tumor cells; assay: alamarBlue growth inhibition, NCI H520; type: cell-based, human; details: 120 hours
# Experimental: as §1, §2
# [15] = system: SW527 (Breast) tumor cells; assay: alamarBlue growth inhibition, SW527; type: cell-based, human; details: 120 hours
# Experimental: as §1, §2
# [16] = system: H630R10 (5FU Resistant) human colon carcinoma; assay: H630-10 5-FU resistant colon carcinoma xenografts in athymic mice; details: 1.25, 2.5, 3.5 mg daily × 5 days, IP or IT/peritumoral; from Day 6 to Day 25
# Experimental: Tumor measurements began on the first day of treatment (Day 1).
# Following cell expansion ex-vivo H630-10 were injected subcutaneously (S.Q.) at 1.5×10^7 cells/tumor in the mid-back region of 4-6 week old, female, CD-1 (nu/nu), athymic mice (Charles River Laboratories, Wilmington, Mass.). Tumor volumes, calculated as the product of length, width, and depth, were monitored twice weekly by serial micrometer measurements by a single observer. Six animals were randomly assigned to each treatment group and statistical tests were performed (single-factor ANOVA) to assure uniformity in starting tumor volumes between treatment and control groups at the beginning of the experiment. […] To assure accurate dosing, drug doses were individualized based upon animal weights determined immediately prior to each injection. […] Differences in day 25 xenograft volumes between groups were analyzed by single-factor ANOVA of the log transformed tumor volume data.
# [17] = system: H630R10 5FU-resistant colon tumor cells; assay: alamarBlue growth inhibition, H630R10; type: cell-based, human
# Experimental: as §1, §2
# [18] = system: NHEPF (Liver) normal cells; assay: alamarBlue growth inhibition, NHEPF; type: cell-based, human; details: 120 hours
# Experimental: as §1, §2
substance,measurement,setting,value
5-(2-Bromovinyl)-2′-deoxyuridine phenyl N-methoxy-L-alaninyl phosphoramidate [NB1011],IC50,[1],139 µM
same,IC50,[2],136 µM
same,IC50,[3],365 µM
same,IC50,[4],247 µM
same,IC50,"[5]; Normal Cells: CCD1800 (Colon), alamarBlue, 120 hours",562 µM
same,IC50,"[5]; normal colon epithelial cells (CCD18co), comparison with 5FUdR",> 2500 µM
same,IC50,[6],204 µM
same,IC50,[7],449 µM
same,IC50,[8],2.3 µM
same,IC50,[9],240 µM
same,improvement in therapeutic index as compared with 5-FU,[10]; (2)×(3),6 fold
same,more cytotoxic to tumor cells vs. normal cells,"[10]; overall, panel",about 2 fold
same,IC50,[10]; average of the 11 normal cell types,561 µM
same,IC50,[10]; average of the 21 tumor cell lines,288 µM
same,IC50,[11],492 µM
same,IC50,[12],262 µM
same,IC50,[13],320 µM
same,IC50,[14],135 µM
same,IC50,[15],431 µM
same,tumor growth (xenograft volume),[16],significant difference between the NB1011 groups vs. either the 5FU or excipient controls
same,IC50,"[17]; H630 Colon cancer, Drug Selection 5FU, read-out: NB1011-IC50",65 µM
same,"NB1011 activity diminished, compared to NB1011 alone","[17]; H630R10, in the presence of 3 μM LV, alamarBlue",more than 90%
same,IC50,"[17]; H630R10, comparison with 5FUdR, read-out: IC50",217 µM
same,IC50,"[17]; Tumor Cells: H630R10 (Colon), alamarBlue, 120 hours, read-out: IC50",65 µM
same,IC50,[18],2080 µM

# Reference: patent publication US7462605B2, “Phosphoramidate compounds and methods of use” (Celmed Oncology (USA), Inc., priority 2002, dated 2008)
